Holding throughout (test): NCI anticancer screen, dose series, 48 h
Assay [1] relates to SF-268 CNS.
Assay [2] relates to HCT-116 colon.
Assay [3] relates to OVCAR-5 ovarian.
The test system of assay [4] is M14 melanoma.
For assay [5], the system named is LOX IMVI melanoma.
The test system of assay [6] is 786-0 renal.
In assay [7] the test system is HOP-92 NSCLC.
Assay [8] relates to U251 CNS.
The subject of assay [9] is OVCAR-8 ovarian.
Assay [10] has as its system SNB-19 CNS.

Molecules are shown by their SMILES.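 Assay format: 96-well plates, 48-hour exposure. GI50: concentration for 50% inhibition of growth. TGI is the concentration that stops growth completely.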

For the molecule `C[N+](C)(C)CC(=O)N/N=C(/C=C/c1ccccc1)CC1OC(=O)c2ccccc21` (centres undefined), the TGI in assay [1] is more than 100 µM; in [2], more than 100 µM; in [3], more than 10 µM; in assay [4] it was more than 100 µM; in [5], more than 10 µM; in [6] it was more than 100 µM. Also, the TGI in assay [7] was more than 10 µM; in assay [8], more than 100 µM; in assay [9], more than 100 µM; in assay [10], more than 100 µM.

Take `COc1ccc(NC(=O)c2ccc(NC3=C(Cl)C(=O)N(Cc4ccccc4)C3=O)cc2)cc1`: the GI50 in assay [1] is 31.5 µM; in assay [2], 2.36 µM; in assay [3] it was 14.8 µM; in [4], 9.42 µM; in assay [5] it was 3.06 µM; in assay [6], 2.89 µM. In addition, the GI50 in [7] is 3.63 µM; in assay [8], 13.3 µM; in assay [9], 3.84 µM; in [10], 18 µM. In addition, the TGI in assay [1] is more than 100 µM; in assay [2], 4.89 µM; in assay [3], 28.8 µM; in assay [4], 28.6 µM; in assay [5], 8.43 µM; in assay [6], 7.97 µM. Besides, the TGI in [7] was 13.8 µM; in [8], 30.5 µM; in [9] it was 18.2 µM; in assay [10] it was 40.4 µM.

On to `N#Cc1c([N+](=O)[O-])cc(C(F)(F)F)cc1[N+](=O)[O-]`, for which the TGI in [1] was 27.3 µM; in assay [2] it was 20 µM; in assay [3], 32.5 µM; in assay [4] it was 17.1 µM; in assay [5], 6.87 µM; in assay [6], 12.7 µM. In addition, the TGI came out at 4.01 µM in assay [7], 33.7 µM in assay [8], 4.36 µM in [9] and 32.4 µM in [10].

Regarding `O=C(Nc1nc2ncn(CCOC(=O)c3ccccc3)c2c(=O)[nH]1)c1ccccc1`, the TGI in assay [1], in assay [2], in assay [3], in [4], in [5] and in assay [6] was more than 100 µM each time. The TGI in assay [7] is more than 75.6 µM; in assay [8] it was more than 64.8 µM; in [9], more than 100 µM; in assay [10] it was more than 100 µM.

As to `CCC12C=CCN3CC[C@]4(C(=C(C(=O)OC)[C@@H]1Nc1ncnc5c1ncn5C1OC(COC(C)=O)C(OC(C)=O)C1OC(C)=O)Nc1ccccc14)C32` (some centres undefined), the TGI in assay [1] came to 5.11 µM; in [2], 5.55 µM; in [3] it was 8.94 µM; in assay [4], 7.03 µM; in [5] it was 3.25 µM; in [6], 4.01 µM. The TGI in assay [7] was 9.02 µM; in assay [8], 4.91 µM; in [9], 4.67 µM; in assay [10], 12.1 µM.

Take `COC(=O)C1Cc2c([nH]c3ccccc23)[C@H](CC(C)C)N1` (some centres undefined): the TGI in assay [1], in [2], in assay [3], in [4], in assay [5] and in assay [6] was more than 100 µM each time. Moreover, the TGI in [7], in assay [8], in assay [9] and in [10] was more than 100 µM throughout.

Consider `CC(C)c1ccc2c(c1)CCC1C(C)(C)[C@@H](O)CC[C@]21C` (some centres undefined), for which the TGI is more than 100 µM in [1]; 34.1 µM in assay [2]; 41.7 µM in [3]; 72.4 µM in assay [4]; 28.8 µM in assay [5]; 52.5 µM in assay [6]. The TGI in [7] is 52.8 µM; in [8], 52.2 µM; in assay [9], more than 100 µM; in assay [10] it was more than 100 µM.

As for `Cn1cc(-c2ccc3cc(-c4ccc(CC(=O)Nc5cc(C(C)(C)C)nn5C)cc4)cnc3c2)cn1`, the GI50 in assay [1] is 0.294 µM; in assay [2], 0.191 µM; in assay [3], 0.606 µM; in [4] it was 0.144 µM; in assay [5], 0.284 µM; in assay [6] it was 0.351 µM. Moreover, the GI50 is 0.401 µM in assay [7], 0.236 µM in [8], 0.274 µM in assay [9] and 0.473 µM in assay [10]. For the same molecule, the TGI in assay [1], in assay [2], in [3], in assay [4], in assay [5] and in [6] was more than 100 µM in each case. Besides, the TGI in assay [7], in [8], in assay [9] and in [10] was more than 100 µM in each case.

For `COc1cc[c]([Hg][Cl])cc1`, the GI50 in assay [1] is 3.27 µM; in assay [2], 4.49 µM; in assay [3], 20.1 µM; in assay [4] it was 1.68 µM; in assay [5] it was 1.42 µM; in assay [6], 3.76 µM. Also, the GI50 in assay [7] is 2.26 µM; in [8], 1.82 µM; in [9], 6.11 µM; in assay [10], 4.59 µM. Also, the TGI in assay [1] was 13.3 µM; in assay [2], 18.4 µM; in assay [3] it was 37.6 µM; in assay [4], 3.87 µM; in [5] it was 2.74 µM; in assay [6], 10.8 µM. For the same molecule, the TGI in [7] is 4.01 µM; in [8] it was 3.51 µM; in assay [9], more than 100 µM; in assay [10], 16.6 µM.

For the molecule `COc1ccc(C(=O)CC2(O)C(=O)Nc3c(Cl)ccc(Cl)c32)cc1` (centres undefined), the GI50 in assay [1] was 5.95 µM; in [2], 0.72 µM; in assay [3], 5.23 µM; in [4] it was 0.56 µM; in [5] it was 2.72 µM; in assay [6], 6.42 µM. For the same molecule, the GI50 in [7] was 1.22 µM; in assay [8], 2.33 µM; in assay [9], 3.62 µM; in [10], 4.68 µM. In addition, the TGI is more than 61.1 µM in assay [1]; 23.9 µM in assay [2]; more than 100 µM in assay [3]; more than 22.2 µM in assay [4]; more than 100 µM in assay [5]; more than 100 µM in assay [6]. In addition, the TGI in assay [7] was 18.4 µM; in assay [8], more than 62.3 µM; in [9], 60.3 µM; in assay [10], more than 100 µM.

In the case of `O=C1CCCC1C(=O)Nc1ccc2ccccc2c1` (centres undefined), the TGI in assay [1], in assay [2], in assay [3], in assay [4], in assay [5] and in assay [6] was more than 100 µM throughout. The TGI in [7], in assay [8], in [9] and in assay [10] was more than 100 µM each time.

Consider `C#Cc1cccc(NC(=O)Nc2ccccc2NC(=O)CCl)c1`, for which the GI50 in assay [1] is 15.2 µM; in assay [2], 24.5 µM; in assay [3], 17.4 µM; in assay [4], 27.8 µM; in assay [5] it was 13.3 µM; in assay [6] it was 29.7 µM. The GI50 is 14.8 µM in assay [7], 15.4 µM in [8], 27.1 µM in assay [9] and 32 µM in assay [10]. Besides, the TGI was 43.2 µM in [1]; more than 82.5 µM in assay [2]; 41.9 µM in assay [3]; more than 82.5 µM in [4]; 25.6 µM in [5]; more than 82.5 µM in assay [6]. Besides, the TGI was 44 µM in assay [7], 33.1 µM in assay [8], more than 82.5 µM in [9] and more than 82.5 µM in assay [10].

On to `CCOC(=O)c1cc2c(n1Cc1cccc(OC)c1)-c1oncc1CC2`, for which the GI50 in assay [1] was 18 µM; in assay [2], 0.47 µM; in [3], 17.9 µM; in [4], 0.432 µM; in assay [5], 0.794 µM; in [6], 4.29 µM. The GI50 in assay [7] is 10.5 µM; in [8] it was 0.909 µM; in assay [9], 10.3 µM; in assay [10], 4.72 µM. Also, the TGI in assay [1] is more than 100 µM; in [2], 19.9 µM; in assay [3] it was more than 100 µM; in assay [4], 35.3 µM; in assay [5], more than 100 µM; in assay [6], more than 100 µM. Further, the TGI in assay [7], in [8], in assay [9] and in assay [10] was more than 100 µM in each case.

With `COC(=O)C1=C(O)C(O)=C(C(=O)OC)CC1`, the TGI in [1] was more than 100 µM; in assay [2], 28.9 µM; in [3], more than 100 µM; in [4], more than 100 µM; in [5] it was more than 100 µM; in assay [6], more than 100 µM. The TGI in assay [7], in assay [8], in assay [9] and in assay [10] was more than 100 µM each time.

`COc1ccc([C@H]2c3cc(OC)c(OC)cc3C=C(C=O)C2CO)cc1OC` (some centres undefined): the GI50 in assay [1] was 4.74 µM; in [2], 5.32 µM; in assay [3], 43 µM; in assay [4] it was 4.41 µM; in assay [5] it was 7.44 µM; in assay [6], 7.15 µM. The GI50 in assay [7] was more than 100 µM; in assay [8] it was 4.42 µM; in assay [9], 6.9 µM; in assay [10], 8.56 µM. Also, the TGI in [1], in assay [2], in assay [3], in assay [4], in [5] and in assay [6] was more than 100 µM each time. Also, the TGI in assay [7], in assay [8], in assay [9] and in assay [10] was more than 100 µM throughout.

For the molecule `Clc1ccc(Cl)c(N/N=C\c2c[nH]c3ccccc23)c1`, the GI50 in [1] was more than 100 µM; in assay [2], 14.8 µM; in assay [3] it was 17.3 µM; in [4], 12.8 µM; in [5], 4.21 µM; in [6], 12.8 µM. The GI50 is 1.13 µM in assay [7], 22 µM in [8], 14.9 µM in assay [9] and 13.2 µM in [10]. Moreover, the TGI was more than 100 µM in assay [1]; 27.9 µM in assay [2]; 36.9 µM in assay [3]; 25.4 µM in assay [4]; 74.7 µM in [5]; 25.4 µM in assay [6]. The TGI in assay [7] was 8.37 µM; in assay [8] it was more than 100 µM; in assay [9], 29.4 µM; in [10] it was 29.4 µM.

Take `COc1cc([C@@H]2c3cc4c(cc3[C@H](OC3OC5COC(c6ccccc6)OC5C(O)C3O)[C@H]3COC(=O)[C@H]23)OCO4)cc(OC)c1OC` (some centres undefined): the GI50 is 0.428 µM in assay [1]; 0.346 µM in [2]; 2.58 µM in assay [3]; 0.351 µM in assay [4]; 0.427 µM in assay [5]; 0.594 µM in assay [6]. Further, the GI50 in assay [7] was 2.73 µM; in [8] it was 0.34 µM; in assay [9], 0.355 µM; in assay [10], 0.405 µM. Besides, the TGI came to 2.72 µM in [1]; 22.5 µM in [3]; 17.9 µM in assay [4]; 2.84 µM in assay [5]; 19.6 µM in [6]; 18.8 µM in assay [7]. Moreover, the TGI came out at 2.02 µM in [8], 2.12 µM in [9] and 16 µM in assay [10].

For the molecule `CC(=O)NNc1nc(C)c(C(/C=C/c2ccc(/C=C/C(=N\NC(=O)c3ccncc3)c3sc(NNC(C)=O)nc3C)cc2)=N/NC(=O)c2ccncc2)s1`, the TGI in assay [1], in assay [2], in assay [3], in [4], in assay [5] and in assay [6] was more than 100 µM in each case. The TGI in assay [7], in assay [8], in [9] and in [10] was more than 100 µM throughout.

(Values after PubChem BioAssay (NCI).)
